Experimental data reported in patent publication US9617244B2, “Antibacterial quinoline derivatives” (JANSSEN PHARMACEUTICA NV, priority 2012, dated 2017).
Values after ≈ are worked out from the molar mass of the structure shown.

Legend:
[1] = test system: Mycobacterium smegmatis (ATCC607); assay: In-vitro anti-bacterial activity against strain M. Smegmatis ATCC607; assay type: cell-based; conditions: 90% inhibitory concentration for bacterial growth, Alamar Blue fluorescence; for IC90 MSM 607: 48 hours; for IC90: Mycolicibacterium smegmatis, ATCC607, 48 h, read-out: IC90 MSM 607
Summary of the method: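 Serial five-fold compound dilutions in BSA-supplemented wells, inoculated with ~250 CFU/well in Mueller-Hinton broth, incubated 48 h at 37 °C, 5% CO2. Growth read by Alamar Blue fluorescence (ex 530/em 590 nm); IC90 in μg/ml.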

[2] = test system: Staphylococcus aureus (ATCC29213); assay: In-vitro anti-bacterial activity, microtitre plate assay, IC90 determination (non-mycobacterial strains); assay type: cell-based; conditions: 90% inhibitory concentration for bacterial growth, resazurin fluorescence; for IC90 STA B29213: 24 hours; for IC90: Staphylococcus aureus, ATCC29213, 24 h, read-out: IC90 STA B29213
Summary of the method: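 Inoculum of about 100 TCID50 (10–60 CFU/well) in Mueller-Hinton broth, serial five-fold compound dilutions, 24 h at 37 °C in air. Growth read by resazurin fluorescence (ex 530/em 590 nm); IC90 in μg/ml as 90% growth inhibition.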

| IC90 MSM 607 [1] [µg/mL] | melting point [°C] | IC90 STA B29213 [2] [µg/mL] | IC90 [2] [µg/mL] | IC90 [1] [µg/mL] | Structure (SMILES) |
| --- | --- | --- | --- | --- | --- |
| 2.85 (≈ 5.01 µM) | 174 | 5.69 (≈ 10 µM) | – | – | COc1nc2ccc(S(C)(=O)=O)cc2cc1C(c1ccc(Cl)cc1)C1(O)CCNC(c2ccc(F)cc2C)C1 (stereo not drawn) [Compound 218] |
| 1.80 (≈ 3.16 µM) | 156 | 3.59 (≈ 6.31 µM) | – | – | COc1nc2ccc(S(C)(=O)=O)cc2cc1C(c1ccc(Cl)cc1)C1(O)CCNC(c2ccc(F)cc2C)C1 (stereo not drawn) [Compound 219] |
| 0.90 (≈ 1.58 µM) | 221 | – | 1.8 (≈ 3.16 µM) | – | COc1nc2ccc(Br)cc2cc1C(c1ccc(Cl)cc1)C1(O)CCNCC1Cc1cccc(F)c1 (stereo not drawn) [Compound 226] |
| 2.86 (≈ 5.02 µM) | 196 | 1.80 (≈ 3.16 µM) | – | – | COc1nc2ccc(Br)cc2cc1C(c1ccc(Cl)cc1)C1(O)CCNCC1Cc1cccc(F)c1 (stereo not drawn) [Compound 228] |
| 1.51 (≈ 2.81 µM) | 205 | 2.40 (≈ 4.47 µM) | – | – | COc1nc2ccc(SC)cc2cc1C(c1ccc(Cl)cc1)C1(O)CCNC(c2ccc(F)cc2C)C1 (stereo not drawn) [Compound 244] |
| 1.07 (≈ 1.99 µM) | 147 | 1.91 (≈ 3.56 µM) | – | – | COc1nc2ccc(SC)cc2cc1C(c1ccc(Cl)cc1)C1(O)CCNC(c2ccc(F)cc2C)C1 (stereo not drawn) [Compound 245] |
| – | 100 | – | > 11.8 | > 11.8 | COc1nc2ccc(CN)cc2cc1[C@@H](c1ccccc1)C1(O)CCNC(Cc2ccccc2)C1 (stereo partly drawn) [Compound 246] |
| 1.69 (≈ 3.16 µM) | 132 | 3.38 (≈ 6.31 µM) | – | – | COc1nc2ccc(Br)cc2cc1C(c1ccccc1)C1(O)CCNC(c2ccc(F)cc2C)C1 (stereo not drawn) [Compound 247] |
| 2.68 (≈ 5.01 µM) | 134 | 3.38 (≈ 6.31 µM) | – | – | COc1nc2ccc(Br)cc2cc1C(c1ccccc1)C1(O)CCNC(c2ccc(F)cc2C)C1 (stereo not drawn) [Compound 248] |
| 1.07 (≈ 2 µM) | 178 | 1.69 (≈ 3.16 µM) | – | – | COc1nc2ccc(Br)cc2cc1C(c1ccccc1)C1(O)CCNC(c2ccc(F)cc2C)C1 (stereo not drawn) [Compound 249] |
| 1.35 (≈ 2.52 µM) | 125 | 1.69 (≈ 3.16 µM) | – | – | COc1nc2ccc(Br)cc2cc1C(c1ccccc1)C1(O)CCNC(c2ccc(F)cc2C)C1 (stereo not drawn) [Compound 250] |
| 10.67 (≈ 20 µM) | 183 | 13.43 (≈ 25.1 µM) | – | – | COc1nc2ccc(S(C)(=O)=O)cc2cc1C(c1ccccc1)C1(O)CCNC(c2ccc(F)cc2C)C1 (stereo not drawn) [Compound 251] |
| >13.43 | 152 | >13.43 | – | – | COc1nc2ccc(S(C)(=O)=O)cc2cc1C(c1ccccc1)C1(O)CCNC(c2ccc(F)cc2C)C1 (stereo not drawn) [Compound 252] |
| 2.22 (≈ 3.98 µM) | 118 | 2.49 (≈ 4.46 µM) | – | – | COc1nc2ccc(Br)cc2cc1C(c1ccc(Cl)cc1)C1(O)CCNC(CC2CCCCC2)C1 (stereo not drawn) [Compound 256] |
| 3.14 (≈ 5.63 µM) | 108 | 4.97 (≈ 8.91 µM) | – | – | COc1nc2ccc(Br)cc2cc1C(c1ccc(Cl)cc1)C1(O)CCNC(CC2CCCCC2)C1 (stereo not drawn) [Compound 257] |
| 1.40 (≈ 2.51 µM) | 168 | 1.76 (≈ 3.15 µM) | – | – | COc1nc2ccc(Br)cc2cc1C(c1ccc(Cl)cc1)C1(O)CCNC(CC2CCCCC2)C1 (stereo not drawn) [Compound 259] |
| 3.39 (≈ 6.31 µM) | 104 | 3.39 (≈ 6.31 µM) | – | – | COc1nc2ccc(SC)cc2cc1C(c1ccc(Cl)cc1)C1(O)CCNC(Cc2ccc(F)cc2)C1 (stereo not drawn) [Compound 260] |
| 1.70 (≈ 3.17 µM) | 122 | 1.70 (≈ 3.17 µM) | – | – | COc1nc2ccc(SC)cc2cc1C(c1ccc(Cl)cc1)C1(O)CCNC(Cc2ccc(F)cc2)C1 (stereo not drawn) [Compound 261] |
| 3.39 (≈ 6.31 µM) | 94 | 7.59 (≈ 14.1 µM) | – | – | COc1nc2ccc(SC)cc2cc1C(c1ccc(Cl)cc1)C1(O)CCNC(Cc2ccc(F)cc2)C1 (stereo not drawn) [Compound 262] |
| 1.70 (≈ 3.17 µM) | 204 | 3.39 (≈ 6.31 µM) | – | – | COc1nc2ccc(SC)cc2cc1C(c1ccc(Cl)cc1)C1(O)CCNC(c2ccc(F)cc2C)C1 (stereo not drawn) [Compound 273] |
| 1.35 (≈ 2.51 µM) | 140 | 0.85 (≈ 1.58 µM) | – | – | COc1nc2ccc(SC)cc2cc1C(c1ccc(Cl)cc1)C1(O)CCNC(c2ccc(F)cc2C)C1 (stereo not drawn) [Compound 275] |
| 3.39 (≈ 6.31 µM) | 184 | 3.39 (≈ 6.31 µM) | – | – | COc1nc2ccc(SC)cc2cc1C(c1ccc(Cl)cc1)C1(O)CCNCC1Cc1cccc(F)c1 (stereo not drawn) [Compound 283] |

| IC90 MSM 607 [1] [µg/mL] | melting point [°C] | IC90 STA B29213 [2] [µg/mL] | IC90 [2] [µg/mL] | IC90 [1] [µg/mL] | Structure (SMILES) |
| --- | --- | --- | --- | --- | --- |
| – | 185 | – | 3.31 (≈ 6.3 µM) | 2.63 (≈ 5.01 µM) | COc1nc2ccc(SC)cc2cc1C(c1ccc(Cl)cc1)C1(O)CCNC(CC2CCCCC2)C1 (stereo not drawn) [Compound 287] |
| 7.16 (≈ 12.6 µM) | 150 | – | 7.16 (≈ 12.6 µM) | – | COc1nc2ccc(S(C)(=O)=O)cc2cc1C(c1ccc(Cl)cc1)C1(O)CCNCC1Cc1cccc(F)c1 (stereo not drawn) [Compound 291] |
| 1.35 (≈ 2.51 µM) | 110 | 1.70 (≈ 3.17 µM) | – | – | COc1nc2ccc(SC)cc2cc1C(c1ccc(Cl)cc1)C1(O)CCNC(Cc2ccc(F)cc2)C1 (stereo not drawn) [Compound 299] |
| 1.70 (≈ 3.17 µM) | 90 | 1.07 (≈ 1.99 µM) | – | – | COc1nc2ccc(SC)cc2cc1C(c1ccc(Cl)cc1)C1(O)CCNC(Cc2ccc(F)cc2)C1 (stereo not drawn) [Compound 300] |
| 6.76 (≈ 12.6 µM) | 170 | 6.76 (≈ 12.6 µM) | – | – | COc1nc2ccc(SC)cc2cc1C(c1ccc(Cl)cc1)C1(O)CCNC(Cc2ccc(F)cc2)C1 (stereo not drawn) [Compound 301] |
| 1.35 (≈ 2.51 µM) | 120 | 2.14 (≈ 3.98 µM) | – | – | COc1nc2ccc(SC)cc2cc1C(c1ccc(Cl)cc1)C1(O)CCNC(Cc2ccc(F)cc2)C1 (stereo not drawn) [Compound 302] |
| 1.76 (≈ 3.17 µM) | 133 | 1.76 (≈ 3.17 µM) | – | – | COc1nc2ccc(SC)cc2cc1C(c1cccc(Cl)c1)C1(O)CCNC(Cc2ccc(F)cc2F)C1 (stereo not drawn) [Compound 318] |
| 2.95 (≈ 5.02 µM) | 159 | 3.71 (≈ 6.31 µM) | – | – | COc1nc2ccc(Br)cc2cc1C(c1ccc(Cl)cc1)C1(O)CCNC(Cc2ccc(F)cc2F)C1 (stereo not drawn) [Compound 320] |
| 0.90 (≈ 1.58 µM) | 186 | 1.80 (≈ 3.16 µM) | – | – | COc1nc2ccc(Br)cc2cc1C(c1ccc(Cl)cc1)C1(O)CCNC(Cc2ccc(F)cc2)C1 (stereo not drawn) [Compound 337] |
| 1.43 (≈ 2.51 µM) | 198 | 1.80 (≈ 3.16 µM) | – | – | COc1nc2ccc(Br)cc2cc1C(c1ccc(Cl)cc1)C1(O)CCNC(Cc2ccc(F)cc2)C1 (stereo not drawn) [Compound 338] |
| 1.80 (≈ 3.16 µM) | 176 | 3.60 (≈ 6.32 µM) | – | – | COc1nc2ccc(Br)cc2cc1C(c1ccc(Cl)cc1)C1(O)CCNC(Cc2ccc(F)cc2)C1 (stereo not drawn) [Compound 339] |
| 1.43 (≈ 2.51 µM) | 132 | 2.86 (≈ 5.02 µM) | – | – | COc1nc2ccc(Br)cc2cc1C(c1ccc(Cl)cc1)C1(O)CCNC(Cc2ccc(F)cc2)C1 (stereo not drawn) [Compound 340] |
| 1.35 (≈ 2.51 µM) | 128 to 130 | 1.70 (≈ 3.17 µM) | – | – | COc1nc2ccc(Cl)cc2cc1C(c1ccc(SC)cc1)C1(O)CCNC(c2ccc(F)cc2C)C1 (stereo not drawn) [Compound 351] |
| 0.85 (≈ 1.58 µM) | 123 to 125 | 1.70 (≈ 3.17 µM) | – | – | COc1nc2ccc(Cl)cc2cc1C(c1ccc(SC)cc1)C1(O)CCNC(c2ccc(F)cc2C)C1 (stereo not drawn) [Compound 352] |
| 1.43 (≈ 2.51 µM) | 190 | 3.60 (≈ 6.32 µM) | – | – | COc1nc2ccc(Br)cc2cc1C(c1ccc(Cl)cc1)C1(O)CCNC(Cc2ccc(F)cc2)C1 (stereo not drawn) [Compound 355] |
| 1.80 (≈ 3.16 µM) | 98 | 1.80 (≈ 3.16 µM) | – | – | COc1nc2ccc(Br)cc2cc1C(c1ccc(Cl)cc1)C1(O)CCNC(Cc2ccc(F)cc2)C1 (stereo not drawn) [Compound 356] |
| 3.60 (≈ 6.32 µM) | 104 | 5.70 (≈ 10 µM) | – | – | COc1nc2ccc(Br)cc2cc1C(c1ccc(Cl)cc1)C1(O)CCNC(Cc2ccc(F)cc2)C1 (stereo not drawn) [Compound 357] |
| 1.43 (≈ 2.51 µM) | 138 | 3.60 (≈ 6.32 µM) | – | – | COc1nc2ccc(Br)cc2cc1C(c1ccc(Cl)cc1)C1(O)CCNC(Cc2ccc(F)cc2)C1 (stereo not drawn) [Compound 358] |
| 3.59 (≈ 6.31 µM) | 146 | 7.16 (≈ 12.6 µM) | – | – | COc1nc2ccc(Cl)cc2cc1C(c1ccc(S(C)(=O)=O)cc1)C1(O)CCNC(c2ccc(F)cc2C)C1 (stereo not drawn) [Compound 366] |
| 5.69 (≈ 10 µM) | 175 | 7.16 (≈ 12.6 µM) | – | – | COc1nc2ccc(Cl)cc2cc1C(c1ccc(S(C)(=O)=O)cc1)C1(O)CCNC(c2ccc(F)cc2C)C1 (stereo not drawn) [Compound 367] |
| 2.44 (≈ 5 µM) | 158 | – | 3.08 (≈ 6.31 µM) | – | C=CC1CC(O)(C(c2ccc(Cl)cc2)c2cc3cc(Br)ccc3nc2OC)CCN1 (stereo not drawn) [Compound 371] |
